Values after ≈ are worked out from the molar mass of the structure shown.
Experiments:
Type in all cases: functional
Candida albicans [1] = assay: Inhibitory activity against Candida albicans (40 clinical isolates), determined at pH-7.2
Candida albicans [2] = assay: 50% inhibitory activity against Candida albicans (40 clinical isolates) determined at pH-7.2
Candida albicans [3] = assay: Inhibitory activity against Candida albicans (40 clinical isolates), determined at pH-5.8
Candida albicans [4] = assay: Resistance against Candida. albicans (40 clinical isolates) at 256 ug/mL (pH=7.2), activity is expressed as R%.
Candida [5] = assay: 90% inhibitory activity against Candida. species (40 clinical isolates) determined at pH-7.2
Candida albicans [6] = assay: Percent resistance against Candida albicans (40 clinical isolates) at 256 micro g/mL (pH=5.8), activity is expressed as R%.
Candida [7] = assay: Inhibitory activity against Candida. species. (40 clinical isolates), determined at pH-7.2
Candida [8] = assay: Inhibitory activity against Candida. species. (40 clinical isolates), determined at pH-5.8
Candida albicans [9] = assay: 50% inhibitory activity against Candida albicans (40 clinical isolates) determined at pH-5.8
Candida [10] = assay: 50% inhibitory activity against the Candida. species (40 clinical isolates) was determined at pH-7.2
Candida albicans [11] = assay: Inhibitory activity against the Candida albicans (40 clinical isolates), determined at pH-5.8
Candida [12] = assay: Inhibitory activity against Candida. species (40 clinical isolates), determined at pH-5.8
Candida albicans [13] = assay: Inhibitory activity against the Candida albicans (40 clinical isolates), determined at pH-7.2
Candida [14] = assay: Percent resistance against all Candida. species (40 clinical isolates) at 256 micro g/mL (pH=7.2), activity is expressed as R%.
Candida [15] = assay: Resistance against all Candida. species (40 clinical isolates) at 256 micro g/mL (pH=5.8). Activity is expressed as R%.
[16] = Candida albicans, read-out: MIC50

| SMILES | MIC (Candida albicans [1]) [µg/mL] | MIC50 (Candida albicans [2]; [16]) [µg/mL] | MIC (Candida albicans [3]) [µg/mL] | R (Candida albicans [4]) [%] | MIC90 (Candida [5]) [µg/mL] | R (Candida albicans [6]) [%] | MIC (Candida [7]) [µg/mL] | MIC (Candida [8]) [µg/mL] | MIC50 (Candida albicans [9]) [µg/mL] | MIC50 (Candida [10]) [µg/mL] | MIC90 (Candida albicans [11]) [µg/mL] | MIC50 (Candida [12]) [µg/mL] | MIC90 (Candida [12]) [µg/mL] | MIC90 (Candida albicans [13]) [µg/mL] | R (Candida [14]) [%] | R (Candida [15]) [%] | MIC50 (Candida albicans [2]) [µg/mL] |
| --- | --- | --- | --- | --- | --- | --- | --- | --- | --- | --- | --- | --- | --- | --- | --- | --- | --- |
| Clc1ccc(-c2c[nH]cc2C(c2ccc(-n3cccc3)cc2)n2ccnc2)cc1 (stereo not drawn) | > 121 | 64 (≈ 160 µM) | > 119 | 20 | 256 (≈ 642 µM) | 16 | > 229 | > 156 | 64 (≈ 160 µM) | 256 (≈ 642 µM) | 256 (≈ 642 µM) | 64 (≈ 160 µM) | > 256 | 256 (≈ 642 µM) | 50 | 40 | – |
| Clc1ccc(C(c2c[nH]cc2-c2ccc(Cl)cc2Cl)n2ccnc2)cc1 (stereo not drawn) | > 66.4 | 8 (≈ 19.9 µM) | > 6.8 | 5 | > 256 | 0 | > 212 | 13.7 (≈ 34 µM) | 4 (≈ 9.93 µM) | 64 (≈ 159 µM) | 256 (≈ 636 µM) | 16 (≈ 39.7 µM) | 16 (≈ 39.7 µM) | 256 (≈ 636 µM) | 40 | 0 | – |
| c1ccc(-c2c[nH]cc2C(c2ccc(-n3cccc3)cc2)n2ccnc2)cc1 (stereo not drawn) | 37.3 (≈ 102 µM) | 16 (≈ 43.9 µM) | 30.4 (≈ 83.4 µM) | 0 | 64 (≈ 176 µM) | 0 | 42.1 (≈ 116 µM) | 40 (≈ 110 µM) | 16 (≈ 43.9 µM) | 32 (≈ 87.8 µM) | 32 (≈ 87.8 µM) | 32 (≈ 87.8 µM) | 64 (≈ 176 µM) | 32 (≈ 87.8 µM) | 0 | 0 | – |
| Clc1ccc(C(c2c[nH]cc2-c2ccccc2)n2ccnc2)cc1Cl (stereo not drawn) | 41.9 (≈ 114 µM) | 16 (≈ 43.4 µM) | 38.6 (≈ 105 µM) | 0 | 256 (≈ 695 µM) | 0 | 191 (≈ 519 µM) | 114 (≈ 311 µM) | 16 (≈ 43.4 µM) | 128 (≈ 348 µM) | 64 (≈ 174 µM) | 64 (≈ 174 µM) | 64 (≈ 174 µM) | 64 (≈ 174 µM) | 20 | 0 | – |
| Clc1ccc(C(c2c[nH]cc2-c2ccccc2Cl)n2ccnc2)cc1 (stereo not drawn) | 9.1 (≈ 24.7 µM) | 8 (≈ 21.7 µM) | 18.7 (≈ 50.8 µM) | 0 | 16 (≈ 43.4 µM) | 0 | 15 (≈ 40.7 µM) | 30.2 (≈ 82 µM) | – | 16 (≈ 43.4 µM) | 32 (≈ 86.9 µM) | 32 (≈ 86.9 µM) | 64 (≈ 174 µM) | 16 (≈ 43.4 µM) | 0 | 0 | 16 (≈ 43.4 µM) |
| Clc1ccc(-c2c[nH]cc2C(c2ccc(Cl)cc2Cl)n2ccnc2)cc1 (stereo not drawn) | 3.6 (≈ 8.94 µM) | 2 (≈ 4.97 µM) | 3.94 (≈ 9.78 µM) | 0 | 128 (≈ 318 µM) | 0 | 61 (≈ 151 µM) | 14.4 (≈ 35.8 µM) | 2 (≈ 4.97 µM) | 32 (≈ 79.5 µM) | 8 (≈ 19.9 µM) | 16 (≈ 39.7 µM) | 32 (≈ 79.5 µM) | 8 (≈ 19.9 µM) | 0 | 0 | – |
| Cc1ccc(C(c2c[nH]cc2-c2ccc(Cl)cc2Cl)n2ccnc2)cc1 (stereo not drawn) | 13.1 (≈ 34.3 µM) | 8 (≈ 20.9 µM) | 7.9 (≈ 20.7 µM) | 0 | > 256 | 0 | > 224 | 16.4 (≈ 42.9 µM) | 8 (≈ 20.9 µM) | 256 (≈ 670 µM) | 16 (≈ 41.9 µM) | 16 (≈ 41.9 µM) | 32 (≈ 83.7 µM) | 16 (≈ 41.9 µM) | 50 | 0 | – |
| Clc1ccc(-c2c[nH]cc2C(c2ccc(-n3cccc3)cc2)n2ccnc2)c(Cl)c1 (stereo not drawn) | > 256 | > 256 | 33.7 (≈ 77.8 µM) | 100 | > 256 | 0 | > 256 | 19.5 (≈ 45 µM) | 16 (≈ 36.9 µM) | > 256 | 64 (≈ 148 µM) | 16 (≈ 36.9 µM) | 32 (≈ 73.8 µM) | > 256 | 100 | 0 | – |
| Clc1ccccc1-c1c[nH]cc1C(c1ccccc1)n1ccnc1 (stereo not drawn) | 19.2 (≈ 57.5 µM) | 16 (≈ 47.9 µM) | 43.8 (≈ 131 µM) | 0 | 64 (≈ 192 µM) | 0 | 22.6 (≈ 67.7 µM) | 78.2 (≈ 234 µM) | – | 32 (≈ 95.9 µM) | 64 (≈ 192 µM) | 64 (≈ 192 µM) | 32 (≈ 95.9 µM) | 32 (≈ 95.9 µM) | 0 | 0 | 32 (≈ 95.9 µM) |
| Clc1ccc(C(c2c[nH]cc2-c2ccccc2Cl)n2ccnc2)c(Cl)c1 (stereo not drawn) | 7.3 (≈ 18.1 µM) | 4 (≈ 9.93 µM) | 5.19 (≈ 12.9 µM) | 0 | 32 (≈ 79.5 µM) | 0 | 21.8 (≈ 54.1 µM) | 13.7 (≈ 34 µM) | 4 (≈ 9.93 µM) | 32 (≈ 79.5 µM) | 16 (≈ 39.7 µM) | 16 (≈ 39.7 µM) | 16 (≈ 39.7 µM) | 16 (≈ 39.7 µM) | 0 | 0 | – |
| Clc1ccc(-c2c[nH]cc2C(c2ccccc2)n2ccnc2)cc1Cl (stereo not drawn) | > 10.9 | 6 (≈ 16.3 µM) | 7.2 (≈ 19.6 µM) | 0 | 16 (≈ 43.4 µM) | 0 | 11.4 (≈ 31 µM) | 19.1 (≈ 51.9 µM) | 8 (≈ 21.7 µM) | 16 (≈ 43.4 µM) | 16 (≈ 43.4 µM) | 16 (≈ 43.4 µM) | 32 (≈ 86.9 µM) | 16 (≈ 43.4 µM) | 0 | 0 | – |
| Fc1ccc(C(c2c[nH]cc2-c2ccc(Cl)c(Cl)c2)n2ccnc2)cc1 (stereo not drawn) | 7.2 (≈ 18.6 µM) | 4 (≈ 10.4 µM) | 7.2 (≈ 18.6 µM) | 0 | 32 (≈ 82.8 µM) | 0 | 26.6 (≈ 68.9 µM) | 16.4 (≈ 42.5 µM) | 4 (≈ 10.4 µM) | 32 (≈ 82.8 µM) | 16 (≈ 41.4 µM) | 16 (≈ 41.4 µM) | 32 (≈ 82.8 µM) | 16 (≈ 41.4 µM) | 0 | 0 | – |
| O=[N+]([O-])c1ccc(C(c2c[nH]cc2-c2ccc(Cl)cc2)n2ccnc2)cc1 (stereo not drawn) | > 91.8 | 32 (≈ 84.5 µM) | > 60.1 | 0 | 64 (≈ 169 µM) | 0 | > 91.8 | > 355 | 16 (≈ 42.2 µM) | 32 (≈ 84.5 µM) | 32 (≈ 84.5 µM) | > 256 | > 256 | 64 (≈ 169 µM) | 10 | 60 | – |
